Experimental data taken from ChEMBL document CHEMBL1138893, “Modulators of the human CCR5 receptor. Part 3: SAR of substituted 1-[3-(4-methanesulfonylphenyl)-3-phenylpropyl]-piperidinyl phenylacetamides” (Bioorg Med Chem Lett, 2006).

How the values were obtained:
[1] = in vivo; conditions: rat, iv
Description: Clearance in rat at 1-2 mg/kg, iv

[2] = in vivo; conditions: rat, iv; remark: listed apart in the source
[3] = in vivo; conditions: rat, iv; remark: listed apart in the source
Description: Half life in rat at 1-2 mg/kg, iv

[4] = target: C-C chemokine receptor type 5 (Homo sapiens, UniProt P51681); experiment: biochemical
Chain of C-C chemokine receptor type 5 (P51681 whole entry): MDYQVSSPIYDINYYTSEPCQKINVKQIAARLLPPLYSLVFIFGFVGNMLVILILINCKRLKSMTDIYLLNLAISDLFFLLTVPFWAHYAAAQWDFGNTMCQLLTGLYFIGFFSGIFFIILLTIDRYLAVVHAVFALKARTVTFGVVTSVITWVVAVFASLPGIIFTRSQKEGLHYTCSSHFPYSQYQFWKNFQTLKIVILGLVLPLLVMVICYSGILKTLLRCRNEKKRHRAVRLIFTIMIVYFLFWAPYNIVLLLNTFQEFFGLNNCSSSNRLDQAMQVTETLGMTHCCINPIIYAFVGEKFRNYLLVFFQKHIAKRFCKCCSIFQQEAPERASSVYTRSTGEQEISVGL
Description: Displacement of [125I]MIP-1-alpha to human recombinant CCR5 expressed in CHO cells

clearance [1]	Vd [2]	half-life [3]	IC50 [4]	SMILES
10 mL/min/kg	1.7 L/kg	2.4 h		CCN(C(=O)Cc1ccc(S(C)(=O)=O)cc1)C1CCN(CCC(c2ccc(F)cc2)c2ccc(F)cc2)CC1
54 mL/min/kg	2.7 L/kg	0.9 h		C=CCN(C(=O)Cc1ccc(S(C)(=O)=O)cc1)C1CCN(CCC(c2ccccc2)c2ccccc2)CC1
			56 nM	CCN(C(=O)Cc1ccc(S(C)(=O)=O)cc1)C1CCN(CC[C@H](c2ccc(S(C)(=O)=O)cc2)c2cccc(C#N)c2)CC1
			500 nM	CCN(C(=O)Cc1ccc(S(C)(=O)=O)cc1)C1CCN(CC[C@H](c2ccc(S(C)(=O)=O)cc2)c2cccc(C(C)(C)C)c2)CC1
